These results are taken from patent publication US12162888B2, “Carboxamides as ubiquitin-specific protease inhibitors” (Valo Early Discovery, Inc., priority 2018, dated 2024).

The first assay has as its target T1, USP28 (His-tagged USP28-FL-mammalian) (Homo sapiens, UniProt Q96RU2).
T1 construct: Expression of USP28 (1-1077)-TEV-6*His (pTT5 vector) was carried out in Expi293f cells; made in house; host or cells: Expi293F cells (pTT5 vector)
T1 sequence (Q96RU2 1-1077): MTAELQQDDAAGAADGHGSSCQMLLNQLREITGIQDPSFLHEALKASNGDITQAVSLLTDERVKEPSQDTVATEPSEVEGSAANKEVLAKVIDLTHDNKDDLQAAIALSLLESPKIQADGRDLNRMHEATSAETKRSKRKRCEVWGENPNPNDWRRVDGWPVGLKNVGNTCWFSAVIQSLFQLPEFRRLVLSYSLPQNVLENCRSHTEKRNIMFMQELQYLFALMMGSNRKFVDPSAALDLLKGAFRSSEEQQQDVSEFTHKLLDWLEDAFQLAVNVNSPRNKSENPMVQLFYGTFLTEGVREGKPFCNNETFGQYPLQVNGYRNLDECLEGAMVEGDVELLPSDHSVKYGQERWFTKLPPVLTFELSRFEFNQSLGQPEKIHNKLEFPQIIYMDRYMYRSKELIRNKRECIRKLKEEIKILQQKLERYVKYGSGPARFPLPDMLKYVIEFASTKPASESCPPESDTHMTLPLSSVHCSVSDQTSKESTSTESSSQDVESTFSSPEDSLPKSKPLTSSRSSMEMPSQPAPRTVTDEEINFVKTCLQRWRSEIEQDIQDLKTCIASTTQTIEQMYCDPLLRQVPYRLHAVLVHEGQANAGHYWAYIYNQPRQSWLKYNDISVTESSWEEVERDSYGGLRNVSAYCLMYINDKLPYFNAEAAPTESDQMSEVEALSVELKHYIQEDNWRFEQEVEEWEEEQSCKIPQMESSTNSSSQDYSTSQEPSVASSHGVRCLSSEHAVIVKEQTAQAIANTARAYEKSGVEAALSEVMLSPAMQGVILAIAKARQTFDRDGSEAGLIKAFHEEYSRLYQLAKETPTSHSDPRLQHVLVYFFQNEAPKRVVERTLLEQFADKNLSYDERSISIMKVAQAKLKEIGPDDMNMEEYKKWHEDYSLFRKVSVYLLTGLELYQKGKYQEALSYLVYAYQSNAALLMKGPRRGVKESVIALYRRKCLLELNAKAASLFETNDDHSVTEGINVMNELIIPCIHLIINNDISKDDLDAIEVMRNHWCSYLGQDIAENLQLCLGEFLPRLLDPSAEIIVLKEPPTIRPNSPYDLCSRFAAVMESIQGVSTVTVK
The assay can be described thus: Ubiquitin-Rhodamine 110 Assay for USP28 Activity, Example A-1(a). The assay is classed as biochemical. The note with it: Ubiquitin-Rhodamine 110 assay, IC50 ranges, read-out: USP28 A-1(a) IC50. Summed up: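 Full-length His-tagged human USP28 (1-1077), expressed in Expi293F cells, was used at […] with 25 nM Ub-Rh110 (<<Km) in 20 mM Tris pH 8.0, 3 mM BME, 0.03% BGG and 0.01% Triton X-100. Compounds (25 μM-1.3 nM, 10-point) were preincubated with enzyme for 30 min, and the reaction ran 45 min at room temperature before a citric acid stop. Fluorescence was read at 485/535 nm, and IC50 came from 4-parameter fits of percent inhibition.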
Consider `N#Cc1c(N2CC3CCC(C2)N3)cc(F)c2c1OC[C@H](NC(=O)c1cnc3c(c1)[C@@H]1CC1CN3)C2` (stereo partly drawn) [Example 228, (6aS,7aR)-N-[(3R)-8-cyano-7-(3,8-diazabicyclo[3.2.1]octan-3-yl}-5-fluoro-3,4-dihydro-2H-1-benzopyran-3-yl]-5H,6H,6aH,7H,7aH-cyclopropa[c]1,8-naphthyridine-2-carboxamide], for which the IC50 lay within 200 to 2000 nM.

Still in this assay, the particulars now being: Ubiquitin-Rhodamine 110 assay, read-out: USP28 A-1(a) IC50 range.
For `Cc1cnc2c(N)c(C(=O)N[C@@H]3CCc4c(C#N)c(N5CC6CCC(C5)N6)cc(F)c4C3)sc2n1` (single isomer, unassigned) [Example 14-20], the IC50 lay in the range of 200 to 2000 nM.
`Cc1ccc2c(N)c(C(=O)N[C@H]3CCc4cc(N5CC6CNCC(C5)O6)cc(F)c4C3)sc2n1` (single isomer, unassigned) [Example 11-39]: the IC50 was 200 to 2000 nM.
Same read-out and setting: to `CO[C@H]1CN(c2ccc3c(c2)OC[C@H](NC(=O)c2sc4nc(C)cnc4c2N)C3)C[C@@H]1N` [Example 117] belongs 1 to 50 nM; to `Cc1ccc2c(N)c(C(=O)N[C@H]3COc4cc(N5C[C@H]6CC[C@@H]5CN6)ncc4C3)sc2n1` [Example 76, N-((R)-7-((1R,4R)-2,5-diazabicyclo[2.2.2]octan-2-yl)-3,4-dihydro-2H-pyrano[3,2-c]pyridin-3-yl)-3-amino-6-methylthieno[2,3-b]pyridine-2-carboxamide], 1 to 50 nM; to `CN[C@@H]1CCN(c2ccc3c(c2)CC[C@H](NC(=O)c2sc4nc(C)cnc4c2N)C3)C1` (single isomer, unassigned) [Example 11-27], 50 to 200 nM.
Take `CN[C@H]1CN(c2ccc3c(n2)CC[C@H](NC(=O)c2sc4nc(C)ccc4c2N)C3)C[C@H]1CF` [Example 441, 3-amino-N-[(6S)-2-[(3R,4R)-3-(fluoromethyl)-4-(methylamino)pyrrolidin-1-yl]-5,6,7,8-tetrahydroquinolin-6-yl]-6-methylthieno[2,3-b]pyridine-2-carboxamide]: the IC50 is 50 to 200 nM.
Turning to `Cc1cnc2c(N)c(C(=O)N[C@@H]3CCc4cc(N5C[C@@H]6C[C@H]5CN6)ccc4C3)sc2n1` (single isomer, unassigned) [Example 11-30], the IC50 lay in the range of 200 to 2000 nM.
On to `Cc1nc2sc(C(=O)N[C@H]3CCc4cc(N5CCNCC5)ccc4C3)c(N)c2s1` (single isomer, unassigned) [Example 11-33], for which the IC50 fell in the range of 200 to 2000 nM.
For `CO[C@H]1CN(c2cc(F)c3c(c2C#N)CC[C@@H](NC(=O)c2sc4nc(C)ccc4c2N)C3)C[C@@H]1N` (single isomer, unassigned) [Example 14-24], the IC50 was 200 to 2000 nM.

The same assay, now with this note: biochemical IC50 range, Ubiquitin-Rhodamine 110 assay, read-out: USP28 A-1(a).
Consider `Cc1ccc2c(N)c(C(=O)N[C@H]3COc4cc(N5C[C@@H](N)[C@](C)(CF)C5)ccc4C3)sc2n1` [Example 661, 3-amino-N-[(3R)-7-[(3R,4S)-4-amino-3-(fluoromethyl)-3-methylpyrrolidin-1-yl]-3,4-dihydro-2H-1-benzopyran-3-yl]-6-methylthieno[2,3-b]pyridine-2-carboxamide], for which the IC50 is 1 to 50 nM.
Still for that read-out and setting: to `O=C(N[C@H]1COc2cc(N3CCNCC3)ccc2C1)c1ccc(NCc2ccc(Cl)cc2Cl)nc1` [Example 697, 6-{[(2,4-dichlorophenyl)methyl]amino}-N-[(3R)-7-(piperazin-1-yl)-3,4-dihydro-2H-1-benzopyran-3-yl]pyridine-3-carboxamide] belongs 1 to 50 nM.
